Experimental data reported in paper PMC9140068, “Generation of HepG2 Cells with High Expression of Multiple Drug-Metabolizing Enzymes for Drug Discovery Research Using a PITCh System” (Cells, 2022).

Columns and labels:
[1] = test system: CYPs–UGT1A1 KI-HepG2 cells
Method: The HepG2 cells were seeded in 96-well plates at 1.0 × 10^4 cells/well. […] After 24 h, to examine the cell viability, we performed a WST-8 (2-(2-methoxy-4-nitrophenyl)-3-(4-nitrophenyl)-5-(2,4-disulfophenyl)-2H-tetrazolium, monosodium salt) assay by using Cell Count Reagent SF according to the manufacturer’s instructions. The cell viability was calculated as the percentage of that in the cells treated with a vehicle only.
After 24 h, cell viability was examined by WST-8 assay. The cell viability was calculated as a percentage of the number of cells after treatment with a solvent only. The results shown are means ± SD of three technical replicates.

WT-HepG2 cells = assay: Propranolol metabolite formation in WT-HepG2 cells (HPLC); assay type: in vitro ADME, human; conditions: 1 μM propranolol, 360 min
Excerpt: Figure 5 Major metabolites of propranolol formed by the CYPs–UGT1A1 KI-HepG2 cells. […] Data are means ± SD of three technical replicates. N.D., not detected.

CYP2C9 = CYP2C9 (Homo sapiens, UniProt P11712)
Method: (§1) The cells were cultured on 48-well plates, then washed with pH 7.4 HBSS containing 10 mM HEPES and 25 mM glucose. […] After preincubation, HBSS containing 10 μM phenacetin, 10 μM diclofenac, 50 μM S-mephenytoin, 1 μM bufuralol, 10 μM midazolam, 10 μM 7′-hydroxy coumarin, or 1 μM propranolol was added, and the cells were incubated at 37 ℃ for 360 min. […] The samples were collected from the supernatant, then immediately mixed with the same volume of acetonitrile. The mixed solutions were centrifuged for 5 min at 15,000× g. […] HPLC analysis was performed using a LO-20AD SPD + RF (DGU-20A, LC-20AD, RF-20A xs, SIL-20AC, CBM-20A, SPD-20A, CTO-20AC; Shimadzu). The concentrations of each metabolite were calculated according to the respective standard followed by normalization to the protein content per well.
(§2) A value of p < 0.05 was considered statistically significant. Using the SigmaPlot v.
(§3) The quantity of metabolites (4′-hydroxy diclofenac, 1′-hydroxy bufuralol, and 1′-hydroxy midazolam; these compounds are metabolites for CYP2C9, 2D6, and 3A4, respectively) were measured by HPLC. Data represent the means ± SD (n = 3, technical replicates). Statistical analyses were performed using the unpaired two-tailed Student’s t test (** p < 0.01). […]

[2] = test system: CYPs–UGT1A1 KI-HepG2 cells; assay: Propranolol metabolite formation in CYPs–UGT1A1 KI-HepG2 cells (HPLC); assay type: in vitro ADME, human; conditions: 1 μM propranolol, 360 min
CYP2D6 = molecular target: T1, CYP2D6 (Homo sapiens, UniProt P10635); assay: CYP2D6 inhibition in CYPs–UGT1A1 KI-HepG2 cells (1′-hydroxy bufuralol formation, HPLC); assay type: in vitro ADME
T1 construct: P2A self-cleaving peptide (upstream linker from CYP2C9) (N); T2A self-cleaving peptide (linker to HygR) (C); expressed in transfected cells
Method: as §1, §2, §3

T1 sequence (P10635 whole entry): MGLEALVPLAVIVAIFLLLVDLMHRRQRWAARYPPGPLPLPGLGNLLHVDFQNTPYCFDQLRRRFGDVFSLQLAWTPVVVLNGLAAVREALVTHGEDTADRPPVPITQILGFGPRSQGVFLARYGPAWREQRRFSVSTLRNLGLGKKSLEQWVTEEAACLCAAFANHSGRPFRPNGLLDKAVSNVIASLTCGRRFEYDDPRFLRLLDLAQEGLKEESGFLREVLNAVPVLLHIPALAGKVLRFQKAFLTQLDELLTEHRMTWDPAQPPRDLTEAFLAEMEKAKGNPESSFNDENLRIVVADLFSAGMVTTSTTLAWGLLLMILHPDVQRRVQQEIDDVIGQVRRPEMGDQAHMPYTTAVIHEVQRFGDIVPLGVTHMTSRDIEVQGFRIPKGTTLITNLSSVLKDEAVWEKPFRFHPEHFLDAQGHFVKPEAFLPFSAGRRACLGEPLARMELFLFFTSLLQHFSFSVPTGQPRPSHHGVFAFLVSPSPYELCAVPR
Chain of CYP2C9 (P11712 whole entry): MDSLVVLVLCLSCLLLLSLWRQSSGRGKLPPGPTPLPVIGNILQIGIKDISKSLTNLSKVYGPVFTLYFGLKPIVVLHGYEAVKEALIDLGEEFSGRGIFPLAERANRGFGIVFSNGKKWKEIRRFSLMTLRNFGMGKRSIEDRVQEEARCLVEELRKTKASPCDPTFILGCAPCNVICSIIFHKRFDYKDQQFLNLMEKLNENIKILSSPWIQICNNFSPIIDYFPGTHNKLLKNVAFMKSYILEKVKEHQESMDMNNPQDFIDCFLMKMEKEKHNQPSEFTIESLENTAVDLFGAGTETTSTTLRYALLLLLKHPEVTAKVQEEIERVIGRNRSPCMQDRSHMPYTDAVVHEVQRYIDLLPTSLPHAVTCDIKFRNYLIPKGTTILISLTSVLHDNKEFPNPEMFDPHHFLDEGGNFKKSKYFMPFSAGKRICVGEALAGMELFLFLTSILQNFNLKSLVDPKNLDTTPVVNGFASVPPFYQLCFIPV

| Structure (SMILES) | Cell viability of CYPs–UGT1A1 KI-HepG2 cells compared with WT-HepG2 cells [1] | Metabolite of propranolol formed (detection by HPLC) (WT-HepG2 cells) | other results |
| --- | --- | --- | --- |
| CCc1oc2ccccc2c1C(=O)c1cc(Br)c(O)c(Br)c1 [benzbromarone] | lower |  |  |
| CC(C)NCC(O)COc1ccc(O)c2ccccc12 (centres unmarked) [4′-hydroxy propranolol] |  | undetectable |  |
| CC(=O)Nc1ccc(O)cc1 [acetaminophen] | lower |  |  |
| Nc1ccc(S(=O)(=O)Nc2ccnn2-c2ccccc2)cc1 [sulfaphenazole] |  |  | CYP2C9 activity in the presence of the inhibitor (CYP2C9): significantly decreased |
| CN(C)CCCN1c2ccccc2CCc2ccccc21 [imipramine] | lower |  |  |
| NCC(O)COc1cccc2ccccc12 (centres unmarked) [desisopropylpropranolol] |  | undetectable | Metabolite of propranolol formed (detection by HPLC) [2]: present at detectable levels |
| CC(C)NCC(O)COc1cccc2c(O)cccc12 (centres unmarked) [5′-hydroxy propranolol] |  | undetectable |  |
| CN(C/C=C/C#CC(C)(C)C)Cc1cccc2ccccc12 [terbinafine] |  |  | CYP2D6 activity in the presence of the inhibitor (CYP2D6; 10 μM inhibitor, 1 μM bufuralol, p < 0.01): significantly decreased; IC50 (CYP2D6; substrate 1 μM bufuralol, inhibitor 0.03-10 μM, 30 min preincubation, 360 min incubation): 63.5 nM |
| Cc1c(C)c2c(c(C)c1O)CCC(C)(COc1ccc(CC3SC(=O)NC3=O)cc1)O2 (centres unmarked) [troglitazone] | lower |  |  |
